Data published in the supplement of paper PMC5908809.

Key:
[1] = system: normal NK cells expanded with K562-aAPC; assay: drug sensitivity score (DSS) (DSS units); higher = more sensitive; extreme values may be limits of the assay; settings: 72 h; IL-2 2.5 ng/mL
Procedure: (§1)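 Drug sensitivity and resistance testing on K562-aAPC-expanded normal NK cells: 5 concentrations (10-fold steps over a 10,000-fold range), 72 h at 37 °C, viability by CellTiter-Glo normalised to DMSO and benzethonium chloride controls; DSS from the fitted curve.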

KHYG-1 (IL-2 2.5 ng/mL) [2] = assay: as above; settings: 72 h
NKL (IL-2 2.5 ng/mL) [3] = assay: as above; settings: 72 h
KAI3 (IL-2 2.5 ng/mL) [4] = assay: as above; settings: 72 h
[5] = system: normal primary NK cells, pool 1 (3 donors) (IL-2 2.5 ng/mL); assay: as above; settings: 72 h
NK-YS (IL-2 2.5 ng/mL) [6] = assay: as above; settings: 72 h
DERL-7 (IL-2 2.5 ng/mL) [7] = assay: as above; settings: 72 h
[8] = system: normal primary NK cells, pool 2 (3 donors) (IL-2 2.5 ng/mL); assay: as above; settings: 72 h
[9] = system: normal primary NK cells, pool 1 (3 donors), resting (IL-2 0 ng/mL); assay: as above; settings: 72 h
YT (IL-2 2.5 ng/mL) [10] = assay: as above; settings: 72 h
IMC-1 (IL-2 20 ng/mL) [11] = assay: as above; settings: 72 h
NK-92 (IL-2 2.5 ng/mL) [12] = assay: as above; settings: 72 h
SNK-6 (IL-2 2.5 ng/mL) [13] = assay: as above; settings: 72 h
[14] = system: normal primary NK cells, pool 3 (3 donors) (IL-2 2.5 ng/mL); assay: as above; settings: 72 h
KHYG-1 (IL-2 2.5 ng/mL) [15] = assay: percent inhibition of viability; higher = more inhibition; settings: 72 h
NKL (IL-2 2.5 ng/mL) [16] = assay: as above; settings: 72 h
KAI3 (IL-2 2.5 ng/mL) [17] = assay: as above; settings: 72 h
[18] = system: normal primary NK cells, pool 1 (3 donors) (IL-2 2.5 ng/mL); assay: as above; settings: 72 h
NK-YS (IL-2 2.5 ng/mL) [19] = assay: as above; settings: 72 h
DERL-7 (IL-2 2.5 ng/mL) [20] = assay: as above; settings: 72 h
[21] = system: normal primary NK cells, pool 2 (3 donors) (IL-2 2.5 ng/mL); assay: as above; settings: 72 h
[22] = system: normal primary NK cells, pool 1 (3 donors), resting (IL-2 0 ng/mL); assay: as above; settings: 72 h
YT (IL-2 2.5 ng/mL) [23] = assay: as above; settings: 72 h
IMC-1 (IL-2 20 ng/mL) [24] = assay: as above; settings: 72 h
NK-92 (IL-2 2.5 ng/mL) [25] = assay: as above; settings: 72 h
SNK-6 (IL-2 2.5 ng/mL) [26] = assay: as above; settings: 72 h
[27] = system: normal primary NK cells, pool 3 (3 donors) (IL-2 2.5 ng/mL); assay: as above; settings: 72 h
[28] = system: normal NK cells expanded with K562-aAPC; assay: as above; settings: 72 h, IL-2 2.5 ng/mL
Procedure: as §1

CCNC(=O)Nc1ccc(-c2nc3c(c(N4CCOC[C@@H]4C)n2)CCN(C2COC2)C3)cc1 [RG-7603] (max concentration tested 2500 nM)
Settings	drug sensitivity score
DERL-7 (IL-2 2.5 ng/mL) [7]	8.64
IMC-1 (IL-2 20 ng/mL) [11]	0.89
KAI3 (IL-2 2.5 ng/mL) [4]	5.07
KHYG-1 (IL-2 2.5 ng/mL) [2]	1.86
NK-92 (IL-2 2.5 ng/mL) [12]	3.67
NK-YS (IL-2 2.5 ng/mL) [6]	4.64
NKL (IL-2 2.5 ng/mL) [3]	7.13
SNK-6 (IL-2 2.5 ng/mL) [13]	4.17
YT (IL-2 2.5 ng/mL) [10]	3.15
[1]	2.54
[5]	2.37
[8]	0.33
[9]	0.19
[14]	0

percent inhibition of viability [%]
Settings	0.25 nM	2.5 nM	25 nM	250 nM	2500 nM
DERL-7 (IL-2 2.5 ng/mL) [20]	-2.9	5.17	4.85	41.4	63.4
IMC-1 (IL-2 20 ng/mL) [24]	-2.39	-0.65	-9.05	-18.6	-57.2
KAI3 (IL-2 2.5 ng/mL) [17]	-2.16	10.2	4.9	24.3	45.1
KHYG-1 (IL-2 2.5 ng/mL) [15]	-4.71	-3.78	-6.03	6.5	24.9
NK-92 (IL-2 2.5 ng/mL) [25]	-10.2	-10.6	-15.4	17.8	33.1
NK-YS (IL-2 2.5 ng/mL) [19]	-8.96	-4.62	-4.67	17.1	44.4
NKL (IL-2 2.5 ng/mL) [16]	-16.4	-9.21	1.54	34.9	54.6
SNK-6 (IL-2 2.5 ng/mL) [26]	15	2.98	-2.03	14.2	42.2
YT (IL-2 2.5 ng/mL) [23]	-0.19	-2.47	-0.44	8.66	37
[18]	-9.72	-0.76	9.2	14.6	21
[21]	-4.33	-4.69	-7.06	3.67	13.1
[22]	-10.2	-9.16	15.7	0.22	16
[27]	-5.74	-6.13	-4.3	-0.62	10.1
[28]	-3.77	-6.71	-1.18	12.9	25.9

Nc1cc(F)ccc1NC(=O)/C=C/c1cnn(C/C=C/c2ccccc2)c1 [RGFP966] (max concentration tested 10000 nM)
Settings	drug sensitivity score
DERL-7 (IL-2 2.5 ng/mL) [7]	7.16
IMC-1 (IL-2 20 ng/mL) [11]	1.17
KAI3 (IL-2 2.5 ng/mL) [4]	5.75
KHYG-1 (IL-2 2.5 ng/mL) [2]	3.64
NK-92 (IL-2 2.5 ng/mL) [12]	6.98
NK-YS (IL-2 2.5 ng/mL) [6]	2.39
NKL (IL-2 2.5 ng/mL) [3]	8.18
SNK-6 (IL-2 2.5 ng/mL) [13]	5.69
YT (IL-2 2.5 ng/mL) [10]	1.24
[1]	0
[5]	0
[8]	0
[9]	0.22
[14]	0

percent inhibition of viability [%]
Settings	1 nM	10 nM	100 nM	1000 nM	10000 nM
DERL-7 (IL-2 2.5 ng/mL) [20]	-5.83	-2.09	9.7	22.7	77.1
IMC-1 (IL-2 20 ng/mL) [24]	-2.38	0.66	0.87	7.16	19.2
KAI3 (IL-2 2.5 ng/mL) [17]	3.23	7.54	1.59	11.1	70.5
KHYG-1 (IL-2 2.5 ng/mL) [15]	-1.2	0.69	1.5	8.74	43.4
NK-92 (IL-2 2.5 ng/mL) [25]	3.38	1.97	18.1	20.7	79.9
NK-YS (IL-2 2.5 ng/mL) [19]	-1.47	0.43	1.84	5.06	33.6
NKL (IL-2 2.5 ng/mL) [16]	-2.36	10.4	5.66	29.4	82.3
SNK-6 (IL-2 2.5 ng/mL) [26]	6.08	7.31	9.67	21	62.2
YT (IL-2 2.5 ng/mL) [23]	-2.17	-1.29	1.57	1.53	26.1
[18]	-6.12	-12	2.42	-14.4	-7.06
[21]	-11.2	-8.68	8.11	0.44	9.58
[22]	0.87	-9.67	-2.19	-2.37	16.1
[27]	-1.19	-0.09	10.8	-6.25	4.39
[28]	4.29	0.23	1.76	9.82	9.19

CC(C)(C)Cn1c(N)nc2ccc(-c3[nH]c(C(C)(C)C)nc3-c3ccc(F)cc3)nc21 [Ralimetinib] (max concentration tested 10000 nM)
Settings	drug sensitivity score
DERL-7 (IL-2 2.5 ng/mL) [7]	4
IMC-1 (IL-2 20 ng/mL) [11]	0
KAI3 (IL-2 2.5 ng/mL) [4]	0
KHYG-1 (IL-2 2.5 ng/mL) [2]	2.57
NK-92 (IL-2 2.5 ng/mL) [12]	7.03
NK-YS (IL-2 2.5 ng/mL) [6]	0.28
NKL (IL-2 2.5 ng/mL) [3]	6.44
SNK-6 (IL-2 2.5 ng/mL) [13]	0
YT (IL-2 2.5 ng/mL) [10]	4.06
[1]	0
[5]	2.38
[8]	1.04
[9]	3.35
[14]	0

percent inhibition of viability [%]
Settings	1 nM	10 nM	100 nM	1000 nM	10000 nM
DERL-7 (IL-2 2.5 ng/mL) [20]	-0.84	3.26	3.67	8.89	48.2
IMC-1 (IL-2 20 ng/mL) [24]	-2.69	-3.53	-8.24	-9.02	-12.2
KAI3 (IL-2 2.5 ng/mL) [17]	5.37	12.8	12.9	10.1	11
KHYG-1 (IL-2 2.5 ng/mL) [15]	-1.88	-3.23	-1.97	1.06	46.9
NK-92 (IL-2 2.5 ng/mL) [25]	-0.07	2.05	1.85	13.3	86.5
NK-YS (IL-2 2.5 ng/mL) [19]	-3.85	0.83	1.68	3.41	13.1
NKL (IL-2 2.5 ng/mL) [16]	0.97	4.97	7.92	17.1	70
SNK-6 (IL-2 2.5 ng/mL) [26]	-2.2	-16	-17.2	-21.4	9.93
YT (IL-2 2.5 ng/mL) [23]	1.29	1.91	4.09	6.38	55.6
[18]	-10.9	-14.6	6.91	-4.19	51.1
[21]	-10.8	-12.4	-9.11	-7.41	31.4
[22]	-14.8	-29.1	-0.22	-17.7	77
[27]	-7.2	-12.3	-15.7	-6.16	11.3
[28]	-3.87	-2.62	-1.53	-3.78	1.72
